# Measured values: US11026940B2, “Compositions for the mobilization, homing, expansion and differentiation of stem cells and methods of using the same” (Ampio Pharmaceuticals, Inc., priority 2013, dated 2021)
# Several values for one entry are separate records, joined by “and”; a condition that tells them apart may be missing. Identical values can stand only once.
# What was measured:
# Format in all cases: cell-based, human
# Collagen 2A1 = experiment: Stem cell chondrogenesis, real time PCR gene expression: Collagen 2A1; conditions: for Cp Coll / Mean regulation: Collagen 2A1; for Cp Coll / Mean regulation / Mean ΔCp / ΔCp: Day 22; for Mean regulation: vs saline; for Mean ΔCp / ΔCp: Collagen 2A1 vs GAPDH; for regulation, Collagen 2A1 / Mean regulation, Collagen 2A1: fold regulation vs saline; for regulation, Collagen 2A1 / ΔCp, Collagen 2A1 / 2^-ΔΔCp vs saline, Collagen 2A1 / ΔΔCp vs saline, Collagen 2A1: single replicate well; for Mean regulation, Collagen 2A1 / Mean ΔCp, Collagen 2A1: triplicate wells; for ΔCp, Collagen 2A1: human bone marrow MSC, chondrogenic medium + TGF beta 3; for ΔCp, Collagen 2A1 / 2^-ΔΔCp vs saline, Collagen 2A1 / ΔΔCp vs saline, Collagen 2A1 / Mean ΔCp, Collagen 2A1: vs Actin
# Aggrecan = experiment: Stem cell chondrogenesis, real time PCR gene expression: Aggrecan; conditions: Day 22; for Mean ΔCp / ΔCp: Aggrecan vs Actin; for Cp Agg / Mean regulation: Aggrecan; for Mean regulation: vs saline
# MMP13 = experiment: Stem cell chondrogenesis, real time PCR gene expression: MMP13; conditions: for regulation, MMP13 / Mean regulation, MMP13 / ΔCp, MMP13 / 2^-ΔΔCp vs saline, MMP13 / ΔΔCp vs saline, MMP13 / Mean ΔCp, MMP13: Day 7; for regulation, MMP13 / Mean regulation, MMP13: fold regulation vs saline; for regulation, MMP13 / ΔCp, MMP13 / 2^-ΔΔCp vs saline, MMP13 / ΔΔCp vs saline, MMP13: single replicate well; for Mean regulation, MMP13 / Mean ΔCp, MMP13: triplicate wells; for ΔCp, MMP13: human bone marrow MSC, chondrogenic medium + TGF beta 3; for ΔCp, MMP13 / 2^-ΔΔCp vs saline, MMP13 / ΔΔCp vs saline, MMP13 / Mean ΔCp, MMP13: vs Actin; for Cp, MMP13 / 2^-ΔΔCp vs saline / Mean regulation / Mean ΔCp / ΔCp / ΔΔCp vs saline: Day 22; for Cp, MMP13 / 2^-ΔΔCp vs saline / Mean regulation / ΔΔCp vs saline: MMP13; for Mean regulation: vs saline; for Mean ΔCp / ΔCp: MMP13 vs GAPDH
# SOX9 = experiment: Stem cell chondrogenesis, real time PCR gene expression: SOX9; conditions: Day 14; for regulation, SOX9 / Mean regulation, SOX9: fold regulation vs saline; for regulation, SOX9 / ΔCp, SOX9 / 2^-ΔΔCp vs saline, SOX9 / ΔΔCp vs saline, SOX9: single replicate well; for Mean regulation, SOX9 / Mean ΔCp, SOX9: triplicate wells; for ΔCp, SOX9: human bone marrow MSC, chondrogenic medium + TGF beta 3; for ΔCp, SOX9 / 2^-ΔΔCp vs saline, SOX9 / ΔΔCp vs saline, SOX9 / Mean ΔCp, SOX9: vs Actin
# Description: The treatment protocol included expanding 5 HUXMA stem cells in 182 cm^2 flasks containing 40 […] to 80-90% confluence. Cells were trypsinized from the flasks and a 1.0×10^7 cell suspension of HUXMA stem cells was warmed in Cyagen Chondrogenic Differentiation medium. 20 μl of warmed cell suspension was spotted in the middle of each well of a 24-well tissue culture plate (200,000 cells per spot), and incubated at 37° C. and 5% CO2 for one hour. […] Medium exchanges were performed every 3-4 days by aspirating the medium from the wells and replacing with fresh chondrogenic medium, diluted stocks, and TGF beta 3, as described above. […] Medium from the wells was removed and saved for further protein analysis. Qiagen RNeasy plus lysis buffer (with 2mercaptoethanol) was added to each well and gently shaken for 10 minutes. The lysed cell suspensions from each well were transferred to Qiashredder columns and spun at 14,000 rpm for 2 minutes. RNA isolation proceeded by RNeasyTM plus manufacturer's protocol. RNA was eluted from the Qiagen columns using 25 μl RNase free water. cDNA synthesis and real time PCR was conducted as follows. First strand synthesis of cDNA from all samples was performed in 20 μl total volume using 10 μl isolated RNA. All cDNA reactions were then diluted with 30 μl nuclease free water. Real time PCR was then performed using 5 μl diluted cDNA, Roche Syber green master mix, and Qiagen RT^2 gPCRTM primer pairs in 20 μl total reaction volume.
# TIMP1 = experiment: Stem cell chondrogenesis, real time PCR gene expression: TIMP1; conditions: Day 22; for Cp TIMP1 / 2-^ΔΔCp vs saline / Mean regulation / regulation: TIMP1; for Mean regulation / regulation: vs saline; for Mean ΔCp / ΔCp: TIMP1 vs Actin
# Description: • Stem Cells: Bone marrow derived human mesenchymal stem cells: Passage 5 Bone marrow derived human mesenchymal stem cells (HUXMA-01001, Cyagen Biosciences, Sunnyvale Calif.) • Mesenchymal Stem Cell Chondrogenic Differentiation medium (GUXMX-90041, Cyagen Biosciences, Sunnyvale Calif.) • TheraPEAK MSCGM chemically defined Stem cell medium (190632 Lonza) • 1 mM Dexamethasone acetate and mifepristone in absolute ethanol (Sigma) • Saline or 0.9% Sodium chloride for injection ZR Flush (Excelsior Medical, Neptune N.J.) • Sterile filtered 0.6 mM sodium caprylate in saline (sigma) • Sterile filtered 3 mM NAT in saline (sigma); To prepare, heat at 60° C. for 30 minutes then sonicate for 5 minutes. • Sterile filtered 10 mM DADKP in saline • 0.2 μM syringe filters • Hepes buffered saline, Trypsin/EDTA, Trypsin neutralizing solution (Lonza reagent pack) • 182 cm2 tissue culture flasks • pipettes and sterile tips • Tissue culture hood, humidified CO2 incubator, water or bead bath • 24 well tissue culture plates • Qiagen RNeasy plus spin columns (Qiagen 74134) • Qiagen RT2 qPCR primer pairs for Collagen 2A1, MMP13, TIMP1, Aggrecan, GAPDH, and Actin B • Roche Sybr green I master mix and Invitrogen Superscript VILO master mix. • Roche 480 lightcycler
# The following stock drug treatment solutions were prepared in saline for injection and warmed to 37° C. in bath: • 4 μM dexamethasone • 4 μM mifepristone • 3 mM NAT • 0.6 mM caprylate • 80 μM DADKP • Mix of 3 mM NAT, 0.6 mM caprylate, 80 μM DADKP (“Ampion” mix)
# Cyagen Chondrogenic Differentiation medium was prepared by manufacturer protocols but excluding dexamethasone and TGF beta 3 supplements, and warmed to 37° C. in bath.
# The treatment protocol included expanding 5 HUXMA stem cells in 182 cm^2 flasks containing 40 mls TheraPEAK™ MSCGM to 80-90% confluence. Cells were trypsinized from the flasks and a 1.0×10^7 cell suspension of HUXMA stem cells was warmed in Cyagen Chondrogenic Differentiation medium. 20 μl of warmed cell suspension was spotted in the middle of each well of a 24-well tissue culture plate (200,000 cells per spot), and incubated at 37° C. and 5% CO2 for one hour.
# The plates were removed from the incubator and an additional 720 μl chondrogenic medium was added to each well. 250 μl saline, or drug solutions were added to the appropriate wells in triplicate (bringing the final drug dilution to one-quarter of the stock drug treatment solution concentrations). 10 μl of TGF beta 3 solution (supplied by Cyagen) was added to each well, and the plates were returned to the incubator.
# RNA isolation and analysis was conducted for all plates as follows at days 7, 14, and 22 post treatment (with the described medium exchanges). […] Qiagen RNeasy plus lysis buffer (with 2mercaptoethanol) was added to each well and gently shaken for 10 minutes. The lysed cell suspensions from each well were transferred to Qiashredder columns and spun at 14,000 rpm for 2 minutes. RNA isolation proceeded by RNeasy™ plus manufacturer's protocol. RNA was eluted from the Qiagen columns using 25 μl RNase free water.
# cDNA synthesis and real time PCR was conducted as follows. First strand synthesis of cDNA from all samples was performed in 20 μl total volume using 10 μl isolated RNA. All cDNA reactions were then diluted with 30 μl nuclease free water. Real time PCR was then performed using 5 μl diluted cDNA, Roche Syber green master mix, and Qiagen RT^2 gPCR™ primer pairs in 20 μl total reaction volume. Relative gene expression was determined by delta deta Ct method.
compound,measurement,setting,value
"CC(=O)N[C@@H](Cc1c[nH]c2ccccc12)C(=O)O [NAT, N-acetyl-tryptophan]",Cp Coll,Collagen 2A1; Table 12,24.2 and 23.63 and 24.67
same,Cp Coll,Collagen 2A1; Table 16,24.2 and 23.63 and 24.67
same,Mean regulation,Collagen 2A1; Table 12,262.94
same,Mean regulation,Collagen 2A1; Table 16,262.94
same,Mean ΔCp,Collagen 2A1; Table 12,5.207
same,ΔCp,Collagen 2A1; Table 12,4.75 and 4.87 and 6
same,Mean ΔCp,Collagen 2A1; Table 16,5.207
same,ΔCp,Collagen 2A1; Table 16,4.75 and 4.87 and 6
same,"regulation, Collagen 2A1",Collagen 2A1; Day 7,−1.40 and 1.01 and −1.43
same,"Mean regulation, Collagen 2A1",Collagen 2A1; Day 7,−0.61
same,"ΔCp, Collagen 2A1",Collagen 2A1; Day 7,7.22 and 6.72 and 7.25
same,"2^-ΔΔCp vs saline, Collagen 2A1",Collagen 2A1; Day 7,0.7137 and 1.0093 and 0.699
same,"ΔΔCp vs saline, Collagen 2A1",Collagen 2A1; Day 7,0.487 and −0.01 and 0.517
same,"Mean ΔCp, Collagen 2A1",Collagen 2A1; Day 7,7.063
same,"regulation, Collagen 2A1",Collagen 2A1; Day 14,−3.42 and 7.09 and 7.76
same,"Mean regulation, Collagen 2A1",Collagen 2A1; Day 14,3.81
same,"ΔCp, Collagen 2A1",Collagen 2A1; Day 14,12.83 and 8.23 and 8.1
same,"2^-ΔΔCp vs saline, Collagen 2A1",Collagen 2A1; Day 14,0.2925 and 7.0943 and 7.7633
same,"ΔΔCp vs saline, Collagen 2A1",Collagen 2A1; Day 14,1.773 and −2.83 and −2.96
same,"Mean ΔCp, Collagen 2A1",Collagen 2A1; Day 14,9.72
same,Mean ΔCp,Aggrecan; Table 12,7.1
same,ΔCp,Aggrecan; Table 12,8.24 and 5.62 and 7.44
same,Mean ΔCp,Aggrecan; Table 16,7.1
same,ΔCp,Aggrecan; Table 16,8.24 and 5.62 and 7.44
same,Cp Agg,Aggrecan; Table 12,25.43 and 23.3 and 24.4
same,Cp Agg,Aggrecan; Table 16,25.43 and 23.3 and 24.4
same,Mean regulation,Aggrecan; Table 12,11.66
same,Mean regulation,Aggrecan; Table 16,11.66
same,"regulation, MMP13",MMP13,−1.43 and −1.81 and −2.45
same,"Mean regulation, MMP13",MMP13,−1.89
same,"ΔCp, MMP13",MMP13,5.15 and 5.49 and 5.93
same,"2^-ΔΔCp vs saline, MMP13",MMP13,0.7006 and 0.5535 and 0.408
same,"ΔΔCp vs saline, MMP13",MMP13,0.513 and 0.853 and 1.293
same,"Mean ΔCp, MMP13",MMP13,5.523
same,"Cp, MMP13",MMP13; Table 12,22.68 and 21.71 and 21.65
same,2^-ΔΔCp vs saline,MMP13; Table 16,0.8487 and 1.0305 and 1.0093
same,"Cp, MMP13",MMP13; Table 16,22.68 and 21.71 and 21.65
same,Mean regulation,MMP13; Table 12,0.29
same,Mean regulation,MMP13; Table 16,0.29
same,Mean ΔCp,MMP13; Table 12,3.053
same,ΔCp,MMP13; Table 12,3.23 and 2.95 and 2.98
same,Mean ΔCp,MMP13; Table 16,3.053
same,ΔCp,MMP13; Table 16,3.23 and 2.95 and 2.98
same,"regulation, SOX9",SOX9,−2.30 and 2.11 and 2.04
same,"Mean regulation, SOX9",SOX9,0.62
same,"ΔCp, SOX9",SOX9,8.38 and 6.1 and 6.15
same,"2^-ΔΔCp vs saline, SOX9",SOX9,0.4353 and 2.114 and 2.042
same,"ΔΔCp vs saline, SOX9",SOX9,1.2 and −1.08 and −1.03
same,"Mean ΔCp, SOX9",SOX9,6.877
same,Cp TIMP1,TIMP1; Table 12,20.59 and 21.28 and 20.57
same,2-^ΔΔCp vs saline,TIMP1; Table 16,1.2894 and 1.1225 and 1.1147
same,Cp TIMP1,TIMP1; Table 16,20.59 and 21.28 and 20.57
same,Mean regulation,TIMP1; Table 12,1.18
same,regulation,TIMP1; Table 12,1.29 and 1.12 and 1.11
same,regulation,TIMP1; Table 16,1.29 and 1.12 and 1.11
same,Mean ΔCp,TIMP1; Table 12,3.537
same,ΔCp,TIMP1; Table 12,3.4 and 3.6 and 3.61
same,Mean ΔCp,TIMP1; Table 16,3.537
same,ΔCp,TIMP1; Table 16,3.4 and 3.6 and 3.61
"CC#C[C@]1(O)CC[C@H]2[C@@H]3CCC4=CC(=O)CCC4=C3[C@@H](c3ccc(N(C)C)cc3)C[C@@]21C [Mifepristone, mifepristone]",Cp Coll,Collagen 2A1; Table 12,25.99 and 27.6 and 26.84
same,Cp Coll,Collagen 2A1; Table 16,25.99 and 27.6 and 26.84
same,Mean regulation,Collagen 2A1; Table 12,16.82
same,Mean regulation,Collagen 2A1; Table 16,16.82
same,Mean ΔCp,Collagen 2A1; Table 12,9.22
same,ΔCp,Collagen 2A1; Table 12,8.52 and 10.14 and 9
same,Mean ΔCp,Collagen 2A1; Table 16,9.22
same,ΔCp,Collagen 2A1; Table 16,8.52 and 10.14 and 9
same,"regulation, Collagen 2A1",Collagen 2A1; Day 7,−1.12 and −3.11 and −1.23
same,"Mean regulation, Collagen 2A1",Collagen 2A1; Day 7,−1.82
same,"ΔCp, Collagen 2A1",Collagen 2A1; Day 7,6.9 and 8.37 and 7.03
same,"2^-ΔΔCp vs saline, Collagen 2A1",Collagen 2A1; Day 7,0.8909 and 0.3216 and 0.8141
same,"ΔΔCp vs saline, Collagen 2A1",Collagen 2A1; Day 7,0.167 and 1.637 and 0.297
same,"Mean ΔCp, Collagen 2A1",Collagen 2A1; Day 7,7.433
same,"regulation, Collagen 2A1",Collagen 2A1; Day 14,1.21 and 1.07 and 1.57
same,"Mean regulation, Collagen 2A1",Collagen 2A1; Day 14,1.28
same,"ΔCp, Collagen 2A1",Collagen 2A1; Day 14,10.78 and 10.96 and 10.41
same,"2^-ΔΔCp vs saline, Collagen 2A1",Collagen 2A1; Day 14,1.2114 and 1.0693 and 1.5655
same,"ΔΔCp vs saline, Collagen 2A1",Collagen 2A1; Day 14,−0.28 and −0.1 and −0.65
same,"Mean ΔCp, Collagen 2A1",Collagen 2A1; Day 14,10.72
same,Mean ΔCp,Aggrecan; Table 12,9.247
same,ΔCp,Aggrecan; Table 12,10.29 and 8.98 and 8.47
same,Mean ΔCp,Aggrecan; Table 16,9.247
same,ΔCp,Aggrecan; Table 16,10.29 and 8.98 and 8.47
same,Cp Agg,Aggrecan; Table 12,25.97 and 24.4 and 23.94
same,Cp Agg,Aggrecan; Table 16,25.97 and 24.4 and 23.94
same,Mean regulation,Aggrecan; Table 12,1.55
same,Mean regulation,Aggrecan; Table 16,1.55
same,"regulation, MMP13",MMP13,−1.49 and −1.34
same,"Mean regulation, MMP13",MMP13,−2.47
same,"ΔCp, MMP13",MMP13,5.21 and 6.83 and 5.06
same,"2^-ΔΔCp vs saline, MMP13",MMP13,0.6721 and 0.2186 and 0.7457
same,"ΔΔCp vs saline, MMP13",MMP13,0.573 and 2.193 and 0.423
same,"Mean ΔCp, MMP13",MMP13,5.7
same,"Cp, MMP13",MMP13; Table 12,20.98 and 21.32 and 21.37
same,ΔΔCp vs saline,MMP13; Table 12,0.517 and 0.867 and 0.537
same,2^-ΔΔCp vs saline,MMP13; Table 16,0.699 and 0.5484 and 0.6894
same,"Cp, MMP13",MMP13; Table 16,20.98 and 21.32 and 21.37
same,ΔΔCp vs saline,MMP13; Table 16,0.517 and 0.867 and 0.537
same,Mean regulation,MMP13; Table 12,−1.57
same,Mean regulation,MMP13; Table 16,−1.57
same,Mean ΔCp,MMP13; Table 12,3.633
same,ΔCp,MMP13; Table 12,3.51 and 3.86 and 3.53
same,Mean ΔCp,MMP13; Table 16,3.633
same,ΔCp,MMP13; Table 16,3.51 and 3.86 and 3.53
same,"regulation, SOX9",SOX9,1.24 and 1.17 and 1.16
same,"Mean regulation, SOX9",SOX9,1.19
same,"ΔCp, SOX9",SOX9,6.87 and 6.95 and 6.96
same,"2^-ΔΔCp vs saline, SOX9",SOX9,1.2397 and 1.1728 and 1.1647
same,"ΔΔCp vs saline, SOX9",SOX9,−0.31 and −0.23 and −0.22
same,"Mean ΔCp, SOX9",SOX9,6.927
same,Cp TIMP1,TIMP1; Table 12,19.69 and 19.8 and 19.76
same,2-^ΔΔCp vs saline,TIMP1; Table 16,0.6958 and 0.8448 and 0.6537
same,Cp TIMP1,TIMP1; Table 16,19.76 and 19.69 and 19.8
same,Mean regulation,TIMP1; Table 12,−1.38
same,Mean ΔCp,TIMP1; Table 12,4.227
same,ΔCp,TIMP1; Table 12,4.01 and 4.38 and 4.29
same,Mean ΔCp,TIMP1; Table 16,4.227
same,ΔCp,TIMP1; Table 16,4.29 and 4.01 and 4.38
